Results as given in US20260150798A1, “METHODS AND COMPOSITIONS FOR IMPROVED PLANT REGENERATION FROM MICROSPORE-DERIVED EMBRYOS” (Monsanto Technology LLC, priority 2022, published 2026).
“Also recorded” adds a separate entry of the source.

System: microspore-derived embryos from 10 proprietary canola lines
Test: Culture-free maturation and regeneration of microspore-derived embryos in soil, canola
Type: in vivo
Conditions: 5 mg/L added to MDE Maturation Medium, about 1 to about 24 hours before transfer to soil
Method: The optimal time to dilute the microspore-derived embryos to a concentration of about 200 to about 400 embryos per plate containing 15 mL medium is about 15 days to about 20 days after the beginning microspore culture initiation (days after culture) (DAC). At this stage, the embryos are green, individually distinguishable with the naked eye, and the majority are in the torpedo stage of development. During the dilution step the embryogenesis induction medium (NLN13) is replaced with MDE Maturation Medium. The microspore-derived embryos were diluted by transferring about 200 to about 400 embryos to a new plate containing 15 mL of MDE Maturation Medium. If the original plates have a starting concentration of about 200 embryos per plate or less, then the media of the original plate is replaced with MDE Maturation Medium without embryo dilution. Following dilution and/or media replacement, plates were returned to 100 μmol fluorescent light for a 16 hour photoperiod, 25° C. day and night with an orbital shaker set to 60 RPM, and cultured to about 28 to about 30 DAC to reach a matured cotyledon stage before transferring to a solid regeneration medium. […] Regeneration rate was measured after 28 days of incubation. Microspore-derived embryos from 10 proprietary canola lines were analyzed in a series of protocols to identify optimized conditions for culture-free maturation and regeneration. […]

O=C(O)CCCc1c[nH]c2ccccc12 [IBA, indole-3-butyric acid] was tested, and the “effect on rooting, plantlet survival and establishment in soil” value was “accelerates rooting and increases plantlet survival and establishment in soil; also recorded: improves rooting”.
